Data set [1] can be described thus: cytotoxicity in CEM-SS cells by uptake of TdR-^3H into total DNA. In kind it is cell-based. Conditions: human, TdR-^3H uptake into total DNA, read-out: IC50 cytotoxicity. As for the experimental part: (§1) The cell cytotoxicity and the anti-HIV-1-activity in CEM-SS cells of selected lipid alcohols are stated in table 1.
(§2) The cytotoxicity was determined by uptake of TdR-^3 H into the total DNA at various concentrations of the stated compounds. The anti-HIV 1 activity was determined using a standard plaque assay of a CEM-SS cell monolayer. The differential selectivity results from the quotient of the IC50 and anti-HIV 1 activity concentrations. ND means not determined.

The test system of a further data set is HIV-1. Nature of the data set: anti-HIV-1 activity, standard plaque assay of a CEM-SS cell monolayer. Format: cell-based. Conditions: for IC50: read-out: IC50 anti-HIV-1; for Diff. selectivity: quotient of cytotoxicity IC50 and anti-HIV 1 IC50. The protocol: as §1, §2
Setting [2] is: Human immunodeficiency virus 1, CEM-SS cell monolayer, plaque assay.

SMILES strings stand for the structures. Read-outs that look alike come from different tables or passages of the source.

As to `CCCCCCCCCCCC[S+]([O-])CC(CO)OCCCCCCCCCC` (stereo not shown) [3-dodecylsulfinyl-2-decyloxy-1-propanol], in data set [1], the CC50 was 36.8 µM. The IC50 in the data set on HIV-1 (setting [2]) was 0.18 µM. Further, the Diff. selectivity in the data set with HIV-1 was determined as 204.22.

As to `CCCCCCCCCCCCS(=O)(=O)CC(CO)OCCCCCCCCCC` (stereo not shown) [3-dodecylsulfonyl-2-decyloxy-1-propanol], in data set [1], the CC50 amounted to 32.7 µM. In addition, in the data set with HIV-1 (setting [2]), the IC50 was 0.54 µM. The Diff. selectivity in the data set with HIV-1 was 60.52.

As for `CCCCCCCCCCCCSCC(CO)OCCCCCCCC` (stereo not shown) [3-dodecylmercapto-2-octyloxy-1-propanol], the CC50 in data set [1] was greater than 90.6 µM. Also, in the data set with HIV-1 (setting [2]), the IC50 was determined as 7.01 µM. The same compound gave a Diff. selectivity in the data set with HIV-1 greater than 12.92.

In the case of `CCCCCCCCCCCOC(CO)CSCCCCCCCCCCC` (stereo not shown) [3-undecylmercapto-2-undecyloxy-1-propanol], the CC50 in data set [1] is greater than 100 µM. Further, in the data set on HIV-1 (setting [2]), the IC50 is 2.95 µM. This compound also returned a Diff. selectivity in the data set on HIV-1 greater than 33.90.

In the case of `CCCCCCCCCCOC(CO)CSCC(C)CCCCCCCCC` (stereo not shown) [3-(2-methyl-undecyl)mercapto-2-decyloxy-1-propanol], in data set [1], the CC50 was greater than 100 µM. Moreover, the IC50 in the data set with HIV-1 (Human immunodeficiency virus 1, CEM-SS) came out at 51.2 µM. For the same compound, the Diff. selectivity in the data set with HIV-1 is given as greater than 1.95.

In the case of `CCCCCCCCCCCCOC(CO)CSCCCCCCCCCCCC` (stereo not shown) [3-dodecylmercapto-2-dodecyloxy-1-propanol], in data set [1], the CC50 is greater than 100 µM. For the same compound, the IC50 with HIV-1 (setting [2]) was greater than 20 µM.

On to `CCCCCCCCCCCCCCSCC(CO)OCCCCCCCCCC` (stereo not shown) [3-tetradecylmercapto-2-decyloxy-1-propanol], for which the CC50 in data set [1] was greater than 100 µM. Besides, the IC50 with HIV-1 (setting [2]) is greater than 20 µM.

Source of the values: US6177469A, “Lipid alcohols as new immunosuppressive and antiviral drugs” (priority 1995, dated 2001).
